The target of one experiment is hDcp2 (Homo sapiens, UniProt Q8IU60). As to the kind of experiment: In vitro RNA decapping assay with recombinant hDcp2. Type of experiment: biochemical. Particulars: for hydrolysis of capped oligonucleotide by hDcp2: capped 32P-labeled short RNA, recombinant hDcp2, anion exchange HPLC (FIG. 6); for Dcp2 susceptibility: radioactivity in pGp* as a percentage of total cap radioactivity, capped oligonucleotides digested with hDcp2. The protocol:
Dcp2 activity was measured with capped 48-nt oligonucleotides as substrates, a truncated form of luciferase mRNA (48 nucleotides). GST-hDcp2 was expressed in Escherichia coli and purified as described by Z. Wang et al., “The hDcp2 protein is a mammalian mRNA decapping enzyme,” Proc. Natl. Acad. Sci. U.S.A., vol. 99, pp. 12663-12668 (2002). Capped oligonucleotides were first subjected to digestion with GST-hDcp2 at 37° C. for 2 h in decapping buffer (10 mM Tris-HCl, pH 7.5, 100 mM potassium acetate, 2 mM magnesium acetate, 0.5 mM MnCl2, 2 mM dithiothreitol, and 0.1 mM spermine). See C. Piccirillo et al., “Functional characterization of the mammalian mRNA decapping enzyme hDcp2,” RNA, vol. 9, pp. 1138-1147 (2003). The reaction mixture was then extracted once with an equal volume of phenol and twice with chloroform, and RNA was precipitated with ethanol. Products of the decapping reaction were further digested with a cocktail of ribonucleases (RiboShredder; Epicentre) at 37° C. for 1 h. The products were resolved by anion-exchange HPLC on a 4.6×250-mm Partisil 10SAX/25 column (Whatman). The gradient consisted of water for 1 min, a linear gradient to 112 mM KH2PO4, pH 4.5, for 20 min, a linear gradient of 112-450 mM KH2PO4 for 15 min, a linear gradient of 450 mM to 1.5 M KH2PO4 for 15 min, and isocratic elution at 1.5 M of KH2PO4 for 9 min, all at a flow rate 1 ml/min.
We tested oligonucleotides capped with either of S-ARCAs for hydrolysis by recombinant hDcp2 to test whether mRNA capped with the various diastereomers of m2^7,2′-OGpppsG and m2^7,2′-OGppspG would differ in their sensitivity to cleavage by Dcp1/Dcp2. See generally Z. Wang et al., “The hDcp2 protein is a mammalian mRNA decapping enzyme,” Proc. Natl. Acad. Sci. U.S.A., vol. 99, pp. 12663-12668 (2002), and Z. Wang et al., “An mRNA Stability Complex Functions with Poly(A)-Binding Protein To Stabilize mRNA In Vitro”, Mol. Cell. Biol., vol. 19, pp. 4552-4560 (1999). Cap analogs used were initially unlabeled, so to follow the products of the digestion reaction we synthesized capped oligonucleotides in the presence of [α-^32P]GTP and a DNA template in which G was the first ribonucleotide specified after the promoter. The oligonucleotides capped with either of the S-ARCAs were subjected to Dcp2 digestion in vitro, after which the products were further digested with a cocktail of ribonucleases (RiboShredder from Epicenter). Any nucleotide on the 5′ side of a G residue acquired a ^32P-labeled 3′-phosphate group after ribonuclease digestion by nearest-neighbor transfer. Anion exchange chromatography was then used to resolve the labeled 3′-nucleoside monophosphates (3′-NMP*), at internal positions in the RNA, from labeled 5′-terminal products (FIG. 6). The latter comprise p3 Gp* derived from uncapped transcripts and m2^7,2′-OGp3 Gp* (when m2^7,2′-OGp3G was used), or pGp* resulting from capped RNA resistant or nonresistant to enzymatic cleavage, respectively. All cap analogs used were ARCAs, which ensured that they were incorporated into RNA exclusively in the correct orientation. This further guaranteed that only one 5′-terminal product (m2^7,2′-OGp3 Gp*) was observed upon ribonuclease treatment. Uncapped RNA is not a substrate for Dcp2, which explains why p3 Gp* product was observed after Dcp2 digestion.
See E. Grudzien et al., “Differential inhibition of mRNA degradation pathways by novel cap analogs,” J. Biol. Chem., vol. 281, pp. 1857-1867 (2006).

In a further experiment the test system is HC11 cells. As to the kind of experiment: Polysomal distribution of capped luciferase mRNA in HC11 cells. Type of experiment: cell-based, mouse. The settings on record: HC11 cells lysed 4 h after electroporation, sucrose gradient. The protocol: To separate ribosomal subunits and initiation complexes, 4×10^6 HC11 cells were treated for 2 min with ice-cold PBS containing 0.1 mg/ml cycloheximide, washed twice with the same medium, and lysed in 600 μl of 0.3 M NaCl, 15 mM Tris-HCl (pH 7.6), 15 mM MgCl2, 1% Triton X-100, 1 mg/ml heparin, and 0.1 mg/ml cycloheximide. After centrifugation at 14,000×g for 10 min, the supernatant was layered on a 15-45% sucrose gradient in the same buffer but lacking Triton X-100 and centrifuged in a Beckman SW41 Ti rotor at 38,000 rpm at 4° C. for 2 h. Gradients were fractionated with continuous monitoring of absorbance at 260 nm. RNA from each fraction (1 ml) was isolated and analyzed by real time PCR.
We used an independent method to validate the observation that m2^7,2′-OGppspG-capped mRNAs were translated more efficiently, namely, their polysomal distribution (FIGS. 9A-9E). An increase in the rate of initiation relative to elongation or termination results in a shift of the mRNA from lighter to heavier polysomes. See H. Lodish, “Model for the regulation of mRNA translation applied to haemoglobin synthesis,” Nature, vol. 251, pp. 385-388 (1974). The type of cap structure is not expected to affect the rate of elongation. Thus, a shift to higher polysomes indicates faster initiation.
Luc A60 mRNA capped with m^7 Gp3G, m2^7,2′-OGp3G or m2^7,2′-OGppspG (D2) was electroporated into HC11 cells. […]

In experiment [1] the test system is rabbit reticulocyte lysate. The experiment in a line: Cell-free translation of capped Luc-A60 mRNA in the rabbit reticulocyte lysate system. The format is biochemical. Particulars: data not shown. From the text:
Luc-A60 mRNA capped with m2^7,2′-OGppspG (D1) and m2^7,2′-OGppspG (D2) was translated 2.8- and 5.1-fold more efficiently than m^7Gp3G-capped mRNA, respectively (FIG. 8 and Table 2). For cell-free translation in the rabbit reticulocyte lysate system, Luc-A60 mRNAs capped with m2^7,2′-OGppspG (D1) and m2^7,2′-OGppspG (D2) were translated only 2.3-fold more efficiently than Luc-A60 mRNA capped with m^7Gp3G (data not shown).

These results are taken from patent US8153773B2, “Synthesis and use of anti-reverse phosphorothioate analogs of the messenger RNA cap” (Board of Supervisors of Louisiana State University and …, priority 2007, dated 2012).

Entries after “also recorded” stand apart in the source; their conditions may differ.

As for `CO[C@@H]1[C@H](O)[C@@H](COP(=O)(O)OP(=O)([O-])OP(=O)(O)OC[C@H]2O[C@@H](n3cnc4c(=O)[nH]c(N)nc43)[C@H](O)[C@@H]2O)O[C@H]1n1c[n+](C)c2c(O)nc(N)nc21` [m2^7,2′-OGpppG, reference compound], at hDcp2, the “hydrolysis of capped oligonucleotide by hDcp2” value (“hydrolysis” for short) is “completely digested” and the Dcp2 susceptibility is given as 100%. For the same molecule, the “polysomal distribution of capped Luc A60 mRNA” value in the experiment with HC11 cells is “shifted to higher polysomes”.

Take m2^7,2′-OGpppsG (D1) [Compound 4a]: the Dcp2 susceptibility at hDcp2 came to 96%.

With m2^7,2′-OGpppsG (D2) [Compound 4b], the Dcp2 susceptibility at hDcp2 is listed as 98%.

For the molecule m2^7,2′-OGppspG (D1) [Compound 5a], at hDcp2, the “hydrolysis” value is “much more susceptible to Dcp2 than its D2 counterpart” and the Dcp2 susceptibility was determined as 71%. In addition, in experiment [1], the “translational efficiency relative to m^7Gp3G-capped Luc-A60 mRNA” value came to 2.3 fold.

As to m2^7,2′-OGppspG (D2) [Compound 5b], at hDcp2, the “hydrolysis” value was “stabilized RNA against hDcp2 hydrolysis; also recorded: resistant to hDcp2 hydrolysis” and the Dcp2 susceptibility turned out to be 6%. Also, in experiment [1], the “translational efficiency relative to m^7Gp3G-capped Luc-A60 mRNA” value is listed as 2.3 fold. Further, the “polysomal distribution of capped Luc A60 mRNA” value in the experiment with HC11 cells was “shifted to even higher polysomes”.

On to m2^7,2′-OGpsppG (D1) [Compound 6a], for which the Dcp2 susceptibility at hDcp2 was 84%.

Turning to m2^7,2′-OGpsppG (D2) [Compound 6b], the Dcp2 susceptibility on hDcp2 is 91%.
